The values below come from US20130090280A1, “CLEANING COMPOSITIONS AND METHODS” (HONEYWELL INTERNATIONAL INC., priority 2011, published 2013).

Read-outs that look alike come from different tables or passages of the source.

A short description of series [1]: chemical stability, reflux with metals and moisture, ion chromatography of aqueous wash. The class given is physicochemical. From the text:
The chemical stability of the compound 1233zd(E) by itself and also in the presence of water, metals, flux is another important factor to be considered in the identification of a successful solvent. […] This test continued for 2 weeks.
Solvent was boiled with water alone or in presence of various metal coupons such as stainless steel 304, cold-rolled steel, galvanized steel, copper, and aluminum. The coupons were partially immersed in the solvent which allowed the state of the coupons at the interface of liquid and vapor to be viewed. […] After the test, coupons were observed visually for rusting or pitting and the remaining solvent in the flask was examined for breakdown products including chlorides and fluorides which are good indicators of breakdown of solvents.

The nature of series [2]: miscibility test, equal parts by weight of solvent and oils, visual observation. Format: physicochemical. The source says:
Applicants compared the solubility of various materials which may be considered as soils to be cleaned in 1233zd(E) in Table 3. […] In all cases, the solvent looked clear and the mixtures are reported as miscible below. This is an initial mode of testing to check how well the solvent performs in dissolving the soils.

A short description of series [3]: selected physical properties of solvents. The source says:
In the table Perc, is used as an abbreviation for perchloroethylene.

Setting [4] is: 0.2% moisture added, reflux 100 hours, AL.
[5] abbreviates: 0.2% moisture added, reflux 100 hours, CRS.
Setting [6] is: 0.2% moisture added, reflux 100 hours, CU.
[7] abbreviates: 0.2% moisture added, reflux 100 hours, GAL.
The mark [8] stands for this setting: 0.2% moisture added, reflux 100 hours, S.S 304.
The mark [9] stands for this setting: 0.2% moisture added, reflux 100 hours, no metal.
Where [10] appears, read: no additional moisture, reflux, AL.
Where [11] appears, read: no additional moisture, reflux, CRS.
[12] abbreviates: no additional moisture, reflux, CU.
The mark [13] stands for this setting: no additional moisture, reflux, GAL.
Setting [14] is: no additional moisture, reflux, S.S 304.
Where [15] appears, read: no additional moisture, reflux, no metal.
The mark [16] stands for this setting: no additional moisture, virgin/no reflux.

Regarding `FC(F)(F)/C=C/Cl` [1233zd(E), trans-1-chloro-3,3,3-trifluoropropene], the Acetate in series [1] (setting [4]) was found to be 0.04 ppm; in series [1] (setting [5]), 0.07 ppm; in series [1] (setting [6]), 0.09 ppm; in series [1] (setting [7]), 0.04 ppm; in series [1] (setting [8]), 0.04 ppm; in series [1] (setting [9]), 0.08 ppm. Also, the Acetate worked out at 0.12 ppm in series [1] (setting [10]); 0.08 ppm in series [1] (setting [11]); 0.12 ppm in series [1] (setting [12]); 0.12 ppm in series [1] (setting [13]); 0.10 ppm in series [1] (setting [14]); 0.13 ppm in series [1] (setting [15]). This compound also yielded an Acetate in series [1] (setting [16]) of 0.13 ppm. Besides, the “Br^−” value in series [1] (setting [4]), in series [1] (setting [5]), in series [1] (setting [6]), in series [1] (setting [7]), in series [1] (setting [8]) and in series [1] (setting [9]) was below 0.05 ppm throughout. Moreover, the “Br^−” value in series [1] (setting [10]), in series [1] (setting [11]), in series [1] (setting [12]), in series [1] (setting [13]), in series [1] (setting [14]) and in series [1] (setting [15]) was below 0.05 ppm in each case. Moreover, in series [1] (setting [16]), the “Br^−” value is reported as below 0.05 ppm. Also, the “Cl^−” value is reported as 0.08 ppm in series [1] (setting [4]); 0.07 ppm in series [1] (setting [5]); 0.08 ppm in series [1] (setting [6]); 0.07 ppm in series [1] (setting [7]); 0.07 ppm in series [1] (setting [8]); 0.08 ppm in series [1] (setting [9]). The “Cl^−” value in series [1] (setting [10]) was found to be 0.14 ppm; in series [1] (setting [11]), 0.12 ppm; in series [1] (setting [12]) it was 0.9 ppm; in series [1] (setting [13]), 0.12 ppm; in series [1] (setting [14]) it was 0.11 ppm; in series [1] (setting [15]), 0.16 ppm. In series [1] (setting [16]), the “Cl^−” value is listed as 0.11 ppm. The “F^−” value in series [1] (setting [4]) is 0.05 ppm; in series [1] (setting [5]), 0.05 ppm; in series [1] (setting [6]), 0.06 ppm; in series [1] (setting [7]), 0.05 ppm; in series [1] (setting [8]), 0.06 ppm; in series [1] (setting [9]) it was 0.05 ppm. For the same compound, the “F^−” value is 0.09 ppm in series [1] (setting [10]); 0.08 ppm in series [1] (setting [11]); 0.09 ppm in series [1] (setting [12]); 0.08 ppm in series [1] (setting [13]); 0.08 ppm in series [1] (setting [14]); 0.09 ppm in series [1] (setting [15]). In addition, in series [1] (setting [16]), the “F^−” value was 0.08 ppm. For the same compound, the Formate in series [1] (setting [4]) stood at 0.10 ppm; in series [1] (setting [5]), 0.14 ppm; in series [1] (setting [6]), 0.16 ppm; in series [1] (setting [7]), 0.08 ppm; in series [1] (setting [8]), 0.08 ppm; in series [1] (setting [9]), 0.12 ppm. Besides, the Formate in series [1] (setting [10]) came out at 0.26 ppm; in series [1] (setting [11]) it was 0.17 ppm; in series [1] (setting [12]), 0.10 ppm; in series [1] (setting [13]), 0.22 ppm; in series [1] (setting [14]), 0.12 ppm; in series [1] (setting [15]), 0.19 ppm. The compound further displayed a Formate in series [1] (setting [16]) of 0.35 ppm. Besides, the “NO3^−” value in series [1] (setting [4]) is listed as below 0.05 ppm; in series [1] (setting [5]) it was 0.10 ppm; in series [1] (setting [6]), 0.15 ppm; in series [1] (setting [7]) it was below 0.05 ppm; in series [1] (setting [8]), below 0.05 ppm; in series [1] (setting [9]) it was below 0.05 ppm. Also, the “NO3^−” value in series [1] (setting [10]) is reported as 0.19 ppm; in series [1] (setting [11]) it was 0.06 ppm; in series [1] (setting [12]), 0.12 ppm; in series [1] (setting [13]), 0.14 ppm; in series [1] (setting [14]), 0.06 ppm; in series [1] (setting [15]), 0.12 ppm. Moreover, in series [1] (setting [16]), the “NO3^−” value turned out to be 0.06 ppm. Further, the “PO4^−3” value in series [1] (setting [4]), in series [1] (setting [5]), in series [1] (setting [6]), in series [1] (setting [7]), in series [1] (setting [8]) and in series [1] (setting [9]) was below 0.10 ppm throughout. Further, the “PO4^−3” value in series [1] (setting [10]), in series [1] (setting [11]), in series [1] (setting [12]), in series [1] (setting [13]), in series [1] (setting [14]) and in series [1] (setting [15]) was below 0.10 ppm throughout. In series [1] (setting [16]), the “PO4^−3” value is recorded as below 0.10 ppm. Moreover, the “SO4^−2” value in series [1] (setting [4]) is 0.18 ppm; in series [1] (setting [5]), 0.26 ppm; in series [1] (setting [6]) it was 0.31 ppm; in series [1] (setting [7]), 0.19 ppm; in series [1] (setting [8]), 0.18 ppm; in series [1] (setting [9]) it was 0.23 ppm. Moreover, the “SO4^−2” value was found to be 0.45 ppm in series [1] (setting [10]); 0.17 ppm in series [1] (setting [11]); 0.41 ppm in series [1] (setting [12]); 0.30 ppm in series [1] (setting [13]); 0.18 ppm in series [1] (setting [14]); 0.29 ppm in series [1] (setting [15]). In addition, in series [1] (setting [16]), the “SO4^−2” value is on record as 0.21 ppm. For the same compound, the “breakdown products in solvent after reflux” value in series [1] (reflux with individual metals and added moisture (0.20% H2O), 100 hours) is “no increase of chlorides and fluorides in the solvent over the baseline and no other degradation products”. The “Soil Dissolution in solvent” value in series [2] (Mineral Oil), in series [2] (Refrigerant oil), in series [2] (Silicone Lubricant) and in series [2] (Solder Flux) was “Miscible” in each case. Also, in series [3], the “Boiling Point” value came to 19.52 °C. Besides, the “Flash Point” value in series [3] is on record as “None”. Also, the Kauri-Butanol value in series [3] is recorded as 25. Further, the flammability entry in series [3] is given as “completely non-flammable”. The “Vapor Pressure” value in series [3] (@20 C.) amounted to 15.23 psi. Also, the “Heat of Vaporization” value in series [3] (at bp) was determined as 193.9 kJ/kg.

In the case of `FC(F)(Cl)C(F)(Cl)Cl` [CFC-113, 1,1,2-trichlorotrifluoroethane], in series [3], the “Boiling Point” value worked out at 47.6 °C, the “Flash Point” value is reported as “None”, the Kauri-Butanol value is recorded as 32 and the “Vapor Pressure” value is 5.27 psi. Also, the “Heat of Vaporization” value in series [3] (at bp) was 144.7 kJ/kg.

With `FC(C(F)C(F)(F)C(F)(F)F)C(F)(F)F` (stereo not drawn) [HFC 43-10mee], in series [3], the “Boiling Point” value was determined as 54 °C, the “Flash Point” value is on record as “None” and the “Vapor Pressure” value is listed as 4.4 psi. The “Heat of Vaporization” value in series [3] (at bp) is recorded as 129.7 kJ/kg.

Take `ClC(Cl)=C(Cl)Cl` [Perc, perchloroethylene]: in series [3], the “Boiling Point” value was 121.3 °C and the “Flash Point” value is reported as “None”. Moreover, the “Vapor Pressure” value in series [3] (@20 C.) is reported as 0.27 psi. In addition, the “Heat of Vaporization” value in series [3] (at bp) was 207 kJ/kg.

As for `CCCBr` [n-Propyl Bromide, n-propyl bromide, reference compound], the “Soil Dissolution in solvent” value in series [2] (Mineral Oil), in series [2] (Refrigerant oil), in series [2] (Silicone Lubricant) and in series [2] (Solder Flux) was “Miscible” throughout. Further, the “Boiling Point” value in series [3] came out at 71 °C. In addition, in series [3], the “Flash Point” value was “None”. Besides, the “Vapor Pressure” value in series [3] (@20 C.) is 2.1 psi. Besides, the “Heat of Vaporization” value in series [3] (at bp) was 246 kJ/kg.

`O` [water] came in with a surface tension in series [3] of 72.1 dynes/cm.

With dichloropentafluoropropane [HCFC-225], in series [3], the “Boiling Point” value is 54 °C and the “Flash Point” value is “None”. For the same compound, in series [3] (@20 C.), the “Vapor Pressure” value is 5.6 psi. Further, in series [3] (@25° C.), the “Heat of Vaporization” value was 145@25 °C kJ/kg.
